From paper PMC8079033, “Design, synthesis, anticancer evaluation, and molecular modelling studies of novel tolmetin derivatives as potential VEGFR-2 inhibitors and apoptosis inducers” (Journal of Enzyme Inhibition and Medicinal Chemistry, 2021)

Columns and labels:
[1] = tested on: panel of 60 tumour cell lines; assay: NCI 60-cell line one-dose screen, summary over the panel; assay type: cell-based, human; conditions: Homo sapiens, 60 cell, listed leukaemia, lung, colon, CNS, melanoma, ovarian, renal, breast lines, read-out: GI% range, potent growth inhibitory effects on the cell lines listed in the text
Method: Anticancer activity screening of the newly synthesised compounds was measured in vitro utilising 60 different human tumour cell lines provided by US National Cancer Institute according to previously reported standard procedure[41–43] as follows: Cells are inoculated into 96-well microtiter plates in 100 ml. After cell inoculation, the microtiter plates are incubated at 37 °C, 5% CO2, 95% air, and 100% relative humidity for 24 h prior to addition of experimental compounds. After 24 h, two plates of each cell line are fixed in situ with TCA, to represent a measurement of the cell population for each cell line at the time of compound addition (Tz). Experimental compounds are solubilised in dimethyl sulfoxide at 400-fold the desired final maximum test concentration and stored frozen prior to use. At the time of compound addition, an aliquot of frozen concentrate is thawed and diluted to twice the desired final maximum test concentration with a complete medium containing […] gentamicin. Aliquots of […] of the compounds dilutions are added to the appropriate microtiter wells already containing 100 ml of medium, resulting in the required final compound concentration. Following compound addition, the plates are incubated for an additional 48 h at 37 °C, 5% CO2, 95% air, and 100% relative humidity. […] The bound stain is subsequently solubilised with a 10 mM trizma base, and the absorbance is read on an automated plate reader at a wavelength of 515 nm. […] Using the absorbance measurements [time zero, (Tz), control growth, (C), and test growth in the presence of compound (Ti)], the percentage growth is calculated for each compound. […]
Fifteen newly synthesised compounds were tested for their in vitro antiproliferative activity by the National Cancer Institute (NCI), Maryland, USA[50], under the Developmental Therapeutic Program (DTP)[41]^,[43]^,[51]^,[52]. The tested compounds were evaluated at a concentration of 10 µM on a panel of 60 tumour cell lines representing leukaemia and non-small cell lung, colon, CNS, melanoma, ovarian, renal, prostate, and breast cancers. […]

renal (UO-31) cell line = assay: MTT cytotoxicity assay; assay type: cell-based; conditions: Homo sapiens, mean ± SD of three experiments
TK-10 = assay: NCI 60-cell line one-dose antiproliferative screen (SRB); assay type: cell-based; conditions: Homo sapiens, read-out: growth inhibition % (GI%)
In short: (§1)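 At 10 µM, compounds incubate with cells 48 h (37 °C, 5% CO2, 100% humidity) following a 24 h attachment period. Fixation in trichloroacetic acid precedes sulforhodamine B staining and Tris-solubilised dye measurement.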

SF-539 = assay: as above; assay type: cell-based; conditions: Homo sapiens, read-out: growth inhibition % (GI%)
In short: as §1

EKVX = assay: as above; assay type: cell-based; conditions: Homo sapiens, read-out: growth inhibition % (GI%)
In short: as §1

MDA-MB-435 = assay: as above; assay type: cell-based; conditions: Homo sapiens, read-out: growth inhibition % (GI%)
In short: as §1

K-562 = assay: as above; assay type: cell-based; conditions: Homo sapiens, K562, read-out: growth inhibition % (GI%)
In short: as §1

MOLT-4 = assay: as above; assay type: cell-based; conditions: Homo sapiens, read-out: growth inhibition % (GI%)
In short: as §1

OVCAR-3 = assay: as above; assay type: cell-based; conditions: Homo sapiens, read-out: growth inhibition % (GI%)
In short: as §1

NCI-H226 = assay: as above; assay type: cell-based; conditions: Homo sapiens, read-out: growth inhibition % (GI%)
In short: as §1

SR = assay: as above; assay type: cell-based; conditions: Homo sapiens, read-out: growth inhibition % (GI%)
In short: as §1

SN 12 C = assay: as above; assay type: cell-based; conditions: Homo sapiens, SN12C, read-out: growth inhibition % (GI%)
In short: as §1

HOP-92 = assay: as above; assay type: cell-based; conditions: Homo sapiens, read-out: growth inhibition % (GI%)
In short: as §1

HL-60 (TB) = assay: as above; assay type: cell-based; conditions: Homo sapiens, read-out: growth inhibition % (GI%)
In short: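 Compounds tested at a single 10 µM dose for 48 h at 37 °C after 24 h pre-incubation; cells TCA-fixed and stained with sulforhodamine B, absorbance at 515 nm. Percent growth calculated relative to no-compound control and time-zero cell count, reported as growth inhibition percentage.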

SK-MEL-2 = assay: as above; assay type: cell-based; conditions: Homo sapiens, read-out: growth inhibition % (GI%)
In short: as §1

SK-OV-3 = assay: as above; assay type: cell-based; conditions: Homo sapiens, read-out: growth inhibition % (GI%)
In short: as §1

HCC-2998 = assay: as above; assay type: cell-based; conditions: Homo sapiens, read-out: growth inhibition % (GI%)
In short: as §1

UACC-257 = assay: as above; assay type: cell-based; conditions: Homo sapiens, read-out: growth inhibition % (GI%)
In short: as §1

MDA-MB-468 = assay: as above; assay type: cell-based; conditions: Homo sapiens, read-out: growth inhibition % (GI%)
In short: as §1

HS 578 T = assay: as above; assay type: cell-based; conditions: Homo sapiens, read-out: growth inhibition % (GI%)
In short: as §1

MALME-3M = assay: as above; assay type: cell-based; conditions: Homo sapiens, read-out: growth inhibition % (GI%)
In short: as §1

SK-MEL-28 = assay: as above; assay type: cell-based; conditions: Homo sapiens, read-out: growth inhibition % (GI%)
In short: as §1

A549/ATCC = assay: as above; assay type: cell-based; conditions: Homo sapiens, read-out: growth inhibition % (GI%)
In short: as §1

SF-295 = assay: as above; assay type: cell-based; conditions: Homo sapiens, read-out: growth inhibition % (GI%)
In short: as §1

Colo 205 = assay: as above; assay type: cell-based; conditions: Homo sapiens, read-out: growth inhibition % (GI%)
In short: as §1

DU-145 = assay: as above; assay type: cell-based; conditions: Homo sapiens, read-out: growth inhibition % (GI%)
In short: as §1

KM12 = assay: as above; assay type: cell-based; conditions: Homo sapiens, read-out: growth inhibition % (GI%)
In short: as §1

HT29 = assay: as above; assay type: cell-based; conditions: Homo sapiens, HT-29, read-out: growth inhibition % (GI%)
In short: as §1

colon (HCT-15) cell line = assay: MTT cytotoxicity assay; assay type: cell-based; conditions: Homo sapiens, mean ± SD of three experiments
[2] = tested on: leukaemia HL-60 (TB) cell line; assay: MTT cytotoxicity assay; assay type: cell-based; conditions: Homo sapiens, mean ± SD of three experiments

Cc1ccc(C(=O)c2ccc(CC(=O)NN=Cc3cccc(O)c3O)n2C)cc1 [Compound 5b, N′-(2,3-Dihydroxybenzylidene)-2–(1-methyl-5–(4-methylbenzoyl)-1H-pyrrol-2-yl) acetohydrazide]
inhibition at 10 µM [1]: 60.9 to 95.9%
IC50 (renal (UO-31) cell line): 7.69 ± 0.41 µM
inhibition at 10 µM (TK-10): 61.2%
inhibition at 10 µM (SF-539): 66.2%
inhibition at 10 µM (EKVX): 41.2%
inhibition at 10 µM (MDA-MB-435): 38.9%
inhibition at 10 µM (K-562): 69.6%
inhibition at 10 µM (MOLT-4): 88.8%
inhibition at 10 µM (OVCAR-3): 76.5%
inhibition at 10 µM (NCI-H226): 31%
inhibition at 10 µM (SR): 91.1%
inhibition at 10 µM (SN 12 C): 53.2%
inhibition at 10 µM (HOP-92): 43.8%
inhibition at 10 µM (HL-60 (TB)): 95.9%
inhibition at 10 µM (SK-MEL-2): < 10%
inhibition at 10 µM (SK-OV-3): 32%
inhibition at 10 µM (HCC-2998): 29.4%
inhibition at 10 µM (UACC-257): 10.3%
inhibition at 10 µM (MDA-MB-468): 45.1%
inhibition at 10 µM (HS 578 T): 12.6%
inhibition at 10 µM (MALME-3M): 41.3%
inhibition at 10 µM (SK-MEL-28): 20%
inhibition at 10 µM (A549/ATCC): 41.3%
inhibition at 10 µM (SF-295): 16.5%
inhibition at 10 µM (Colo 205): 37%
inhibition at 10 µM (DU-145): 50.7%
inhibition at 10 µM (KM12): 55.8%
inhibition at 10 µM (HT29): 13.3%
IC50 (colon (HCT-15) cell line): 6.62 ± 0.35 µM
IC50 [2]: 10.3 ± 0.55 µM

Cc1ccc(C(=O)c2ccc(CC(=O)NN=Cc3ccc(O)cc3O)n2C)cc1 [Compound 5c, N′-(2,4-Dihydroxybenzylidene)-2–(1-methyl-5–(4-methylbenzoyl)-1H-pyrrol-2-yl) acetohydrazide]
inhibition at 10 µM [1]: 60.7 to 95%
IC50 (renal (UO-31) cell line): 17.4 ± 0.93 µM
inhibition at 10 µM (TK-10): 47.1%
inhibition at 10 µM (SF-539): 55.6%
inhibition at 10 µM (EKVX): 65.8%
inhibition at 10 µM (MDA-MB-435): 36.9%
inhibition at 10 µM (K-562): 55.1%
inhibition at 10 µM (MOLT-4): 87%
inhibition at 10 µM (OVCAR-3): 62.8%
inhibition at 10 µM (NCI-H226): 34.3%
inhibition at 10 µM (SR): 82.7%
inhibition at 10 µM (SN 12 C): 44.3%
inhibition at 10 µM (HOP-92): 16.9%
inhibition at 10 µM (HL-60 (TB)): 95.5%
inhibition at 10 µM (SK-MEL-2): 40.6%
inhibition at 10 µM (SK-OV-3): 54.9%
inhibition at 10 µM (HCC-2998): 40.4%
inhibition at 10 µM (UACC-257): 41.7%
inhibition at 10 µM (MDA-MB-468): 53.2%
inhibition at 10 µM (HS 578 T): 25.1%
inhibition at 10 µM (MALME-3M): 51.4%
inhibition at 10 µM (SK-MEL-28): 53.6%
inhibition at 10 µM (A549/ATCC): 53.4%
inhibition at 10 µM (SF-295): 52.8%
inhibition at 10 µM (Colo 205): 58.2%
inhibition at 10 µM (DU-145): 48.7%
inhibition at 10 µM (KM12): 63.9%
inhibition at 10 µM (HT29): 36%
IC50 (colon (HCT-15) cell line): 19 ± 1.03 µM
IC50 [2]: 31.7 ± 1.7 µM
